Structures are written as SMILES. The source made the active and inactive calls. No cut-off for these calls is given here.

One compound from ChEMBL document CHEMBL3797156, “(7-Diethylaminocoumarin-4-yl)methyl ester of suberoylanilide hydroxamic acid as a caged inhibitor for photocontrol of histone deacetylase activity” (Bioorg Med Chem, 2016) can be followed below.

Data set [1] in a line: Prodrug conversion in tris buffer assessed as suberoyl anilide hydroxamic acid formation at 200 uM followed 400 to 430 nm irradiation for 10 mins by HPLC analysis. In kind it is ADME.
Data set [2] has as its target T1, Histone deacetylase (Homo sapiens) (UniProt Q13547+O15379+Q9UBN7+Q92769+Q9UQL6+Q8WUI4+Q9BY41+Q96DB2+P56524+Q9UKV0+Q969S8). In words: Inhibition of human HDAC in HeLa cell nuclear extract in presence of irradiation at 400 to 430 nm for 1 to 10 mins incubated for 60 mins by HDAC-Glo 1/2 reagent based chemiluminescence analysis. In kind it is cell-free.
For data set [3], the target named is T1, Histone deacetylase (Homo sapiens). In words: Inhibition of human HDAC in HeLa cell nuclear extract for 60 mins by HDAC-Glo 1/2 reagent based chemiluminescence analysis. In kind it is cell-free.
For a further data set, the system named is HCT-116. Briefly: Cytotoxicity against human HCT116 cells assessed as inhibition of cell growth at 10 and 30 uM preincubated for 3 hrs followed irradiation at 400 - 430 nm for 1, 3 and 10 min measured after 48 hrs by CellTiter-Glo assay. In kind it is functional, cell-based. In general terms: ATP-based viability assays read luminescence as a measure of living cells.

For `CCN(CC)c1ccc2c(CONC(=O)CCCCCCC(=O)Nc3ccccc3)cc(=O)oc2c1`, in data set [1], the Drug metabolism worked out at 54 µM. The inhibition result in data set [2] was “Active”. Besides, in data set [3], the inhibition entry is “inactive”. The result in the data set on HCT-116 was Active.
